Series [1] deals with TNFα mRNA expression. Kind of series: qPCR of cytokine expression after SN38, Pa01c. Format: cell-based, human. The following applies: for SN38-induced induction of TNFα: inhibitor 2 μM before SN38. As to the method:
(§1) FIG. 3D contains graphs summarizing the results of qPCR for TNFα, TNFβ, TGFβ, IL-1α, and IL-1β in Mia paca-2 (right) and Pa01c (left) cells treated with control or SN38 10 μM for 16 hours. P values from two-away ANOVA with Dunnett's multiple comparison test and error bars are mean+SEM. ***P<0.0002, ****P<0.0001.
FIG. 3F is a graph summarizing the results of qPCR showing TNFα expression in Pa01c cells following treatment with SN38 10 μM alone for 16 hours, or in combination with TAKli 2 μM or IKKi 2 μM for 24 hours prior to treatment with SN38 10 μM for 16 hours. P values from two-away ANOVA with Dunnett's multiple comparison test and error bars are mean+SEM. *P<0.0247, **P<0.0025.
(§2) RNAzol RT (Sigma) was used to isolate total RNA. cDNA was made with High Capacity cDNA reverse transcription kit (Thermo Fisher Scientific, 4368814). qPCR was performed with SYBR-Green reagent (Applied Biosciences). All experiments were performed in biological duplicates or triplicates (n=2, 3).
(§3) Because TAK1 is known to be a downstream kinase of TNF, TGFβ, and IL-1 receptors, a candidate approach was used to survey expression of TNFα/β, TGFβ, and IL-1α/β.
For orientation: Real-time PCR tracks product formation cycle by cycle.

Series [2] concerns p-p38, p-MK2, and p-Hsp27. Kind of series: Immunoblot of SN38-induced p-p38, p-MK2, p-Hsp27 and apoptosis with upstream kinase inhibitors. Format: cell-based, human. The following applies: inhibitor in combination with SN38. As for the experimental part: FIG. 3A contains immunoblot images showing p-p38, p-MK2, and p-Hsp27 activation in MIA paca-2 and Pa01c cells treated with SN38 10 μM for 16 hours alone or with IRAK4 inhibitor 4 μM, HCQ 20 μM, ATM inhibitor 20 μM, ATR inhibitor 20 μM, or TAK1 inhibitor 2 μM.
FIG. 3B contains immunoblot images of MIA paca-2 and Pa01c cells treated with SN38 10 μM alone for 16 hours or in combination with TAK1 inhibitor 2 μM for 16 hours.
To investigated the mechanism by which DNA damage activates MK2 and Hsp27, PDAC cells were treated with SN38 alone or in combination with inhibitors of IRAK4 (PF06650833), TLR9 (hydroxychloroquine, or HCQ), ATM (KU55933), ATR (VE821), and TAK1 (5z-7-oxozeanol).
(Immunoblotting shows a protein as a band on a membrane.)

Series [3] concerns KPPC mice. Description: KPPC mice, ATI-450 chow for two weeks, histologic analysis of pancreata. The series is classed as in vivo. As for the experimental part:
(§4) Tumors were formalin-fixed, paraffin-embedded, sectioned, and stained with hematoxylin and eosin (H&E). Immunohistochemistry (IHC) staining was performed using the following antibodies: p-Hsp27 S82 (CST cat #9709S), p-MK2 T334 (CST cat #3041S), p-p38 T180/Y182 (CST cat #9215S). Ten 200× or 400× power fields were analyzed per tumor independently by two individuals, and data were presented as mean+SEM of collated data. IHC sections were interpreted independently by two individual reviewers and representative data agreeable to all members were presented.
(§5) KPPC (p48-Cre/p53Flox/Flox LSL-KRASG12D) mice were created as described in previous publications. Treatment began six weeks after birth when tumors spontaneously form in vivo. FOLFIFINOX treatment was given by weekly intraperitoneal (I.P.) injection of 5-FU 25 mg/kg, irinotecan 17.5 mg/kg, and oxaliplatin 3.3 mg/kg. ATI-450 treatment was given as drug-impregnated chow, ad libitum, starting six weeks after birth; when given in combination with chemotherapy, ATI-450 chow was begun the day prior to initiation of chemotherapy.
To complement the human xenograft models, which lacked the desmoplastic tumor microenvironment and intact immune system essential for PDAC development, an autochthonous KPPC (p48-Cre; p53flox/flox; LSL-KRASG12D) mouse model was treated and observed. KPPC mice were treated with vehicle or ATI-450 ad libitum in chow starting from 6 weeks-old of age when foci of invasive PDAC start to appear. After two weeks of treatment, all mice were euthanized and their pancreata were subjected to histologic analysis.

The next series concerns autophagy markers. Kind of series: Autophagy markers (western blot, LC3 reporter) after SN38 with or without MK2 inhibitors. Format: cell-based, human. The following applies: for SN38-induced p-Beclin1 and LC3-II: MK2 inhibitor with SN38.
Series [4] relates to p-Hsp27. Kind of series: Immunoblot of p-Hsp27 with MK2 inhibitors (SN38 or UV). The series is classed as cell-based, human. The following applies: at baseline and following SN38 treatment. As to the method: FIG. 2E contains immunoblot images showing PARP cleavage of MIA paca-2 and Pa01c cells treated as in FIG. 1D.
FIG. 2H contains immunoblot images of p-p38, p-MK2, and p-Hsp27 from MIA paca-2 and Pa01c cells treated with 40 J/m2 of ultraviolet light (UV) alone or with MK2 inhibitor PF-3644022.
FIG. 2I contains immunoblot images of p-MK2 and p-Hsp27 from Pa01c cells treated with 40 J/m2 UV light, alone or with MK2 inhibitor ATI-450.
Western blotting was performed according to standard procedures. Cells grown in culture were washed twice in ice-cold 1×PBS and lysed in ice-cold RIPA buffer ([…]) containing 1× protease inhibitor (Sigma), NaVO3, Na pyrophosphate, and NaF. Protein lysates were quantified by Bradford assay and suspended in 6×SDS sample buffer, followed by boiling for 5 min at 95 C. 40 ug of protein lysate was resolved on SDS-PAGE and blotted on nitrocellulose membrane. Antibodies used included p38 MAPK (CST 8690S), p38 MAPK T180/Y182 (CST 9215S), MK2 total (CST 12155S), MK2 T334 (CST 3041S), MK2 T222 (3316S), Hsp27 total (CST 2042S), Hsp27 phos S82 (9709S), ? H2Ax (CST 9718S), JNK T183/Y185 (CST 4668), GSK3 beta phos S9 (CST 5558), ATR phos T1989 (CST 58014), ATM phos 51981 (CST 4526), AMPKα1 phos T172 (CST 2335T), and GAPDH (sc-47724). […]

In another series the test system is PDAC cells. Kind of series: Apoptosis after SN38 with autophagy inhibition (HCQ, Beclin-1 ablation). The series is classed as cell-based, human. The source says: FIG. 4D contains immunoblot images of MIA paca-2 and Pa01c cells following treatment with SN38, HCQ, or the combination. P values from two-way ANOVA with Sidak's multiple comparison test and error bars are mean+SEM. ***P=0.0009, *P=0.035.
FIG. 4F contains immunoblot images of MIA paca-2 control cells or Beclin 1 (BECN1) knockout treated with SN38, ATI-450, or the combination.
FIG. 4G contains scatter plots (left) and a graph summarizing quantification of a FACS analysis of MIA paca-2 control cells or Beclin 1 knockout cells treated with control (DMSO) or SN38 10 μM for 24 hours; graphic quantification of annexin V positive cells on the right.

Series [5] deals with KPPC mice. Description: Autochthonous KPPC model, survival and tumor analysis. Format: in vivo. As to the method: as §4, §5
All mice were treated beginning at 6 weeks of age until humane endpoints were reached.

In a further series the test system is PDAC lines. Kind of series: Recombinant TNFα treatment of PDAC lines: p-Hsp27, PARP cleavage, Annexin V. The series is classed as cell-based, human. The following applies: for TNFα-induced p-Hsp27 / apoptosis: inhibitor plus TNFα.
Another series has as its system MIA paca-2 cells. Kind of series: FACS Annexin V and PI staining, MK2 inhibitor with or without SN38. The settings on record: for apoptosis: MK2 inhibitor combined with SN38. Format: cell-based, human.
For series [6] the following is noted: patients with rheumatoid arthritis; cited from earlier work.
For series [7], the system named is non-pancreatic cancer cell lines (colon, gastric, breast). Kind of series: Apoptosis of non-pancreatic cancer cell lines with SN38 and ATI-450. The settings on record: combination SN38 and ATI-450. Format: cell-based.
Series [8] relates to p-Hsp27. Kind of series: Immunoblot of p-MK2 and p-Hsp27 after individual chemotherapy agents. Format: cell-based, human. The following applies: for induction of p-MK2 and p-Hsp27: PDAC lines tested.
Method: Western blotting was performed according to standard procedures. Cells grown in culture were washed twice in ice-cold 1×PBS and lysed in ice-cold RIPA buffer (10 nM Tris pH 7.4, 50 nM NaCl, 0.05% SDS, 0.05% Triton X-100, 0.5% sodium deoxycholate, and 10 nM EDTA) containing 1× protease inhibitor (Sigma), NaVO3, Na pyrophosphate, and NaF. Protein lysates were quantified by Bradford assay and suspended in 6×SDS sample buffer, followed by boiling for 5 min at 95 C. 40 ug of protein lysate was resolved on SDS-PAGE and blotted on nitrocellulose membrane. Antibodies used included p38 MAPK (CST 8690S), p38 MAPK T180/Y182 (CST 9215S), MK2 total (CST 12155S), MK2 T334 (CST 3041S), MK2 T222 (3316S), Hsp27 total (CST 2042S), Hsp27 phos S82 (9709S), ? H2Ax (CST 9718S), JNK T183/Y185 (CST 4668), GSK3 beta phos S9 (CST 5558), ATR phos T1989 (CST 58014), ATM phos 51981 (CST 4526), AMPKα1 phos T172 (CST 2335T), and GAPDH (sc-47724). Blots were imaged using chemiluminescent substrate (Thermo Scientific).
In series [9] the test system is TNFα mRNA expression. Kind of series: qPCR of cytokine expression after SN38, MIA Paca-2. Format: cell-based, human. The following applies: MIA Paca-2 cells, SN38 10 μM for 16 hours. As for the experimental part: as §1, §2, §3
A further series relates to TNFα protein. Kind of series: TNFα ELISA of Pa01c supernatant. The following applies: Pa01c cells, SN38 10 μM for 16 hours. Format: cell-based, human. As for the experimental part: FIG. 3E is a graph summarizing TNFα ELISA of Pa01c cells treated with control or SN38 10 μM for 16 hours overnight. P values from one-way ANOVA with Dunnett's multiple comparison test and error bars are mean+SEM. *P<0.0332.
as §3

From the text for MIA paca-2 cells: P values from one-way ANOVA with Dunnett's multiple comparison test and error bars are mean+SEM. **P<0.0021, ****P<0.0001.

In the case of `COc1cc(O)c2c(c1)/C=C/C[C@H](O)[C@H](O)C(=O)/C=C\C[C@H](C)OC2=O` [5z-7-oxozeanol, (5Z)-7-Oxozeaenol], the “SN38-induced induction of TNFα” value in the series on TNFα mRNA expression [1] (Pa01c cells) was “abrogated”. In addition, in series [2], the “SN38-induced p-p38, p-MK2, and p-Hsp27” value was “completely blocked”; the “apoptotic effect of SN38” value is reported as “potentiated”.
For the compound `Cc1cnc(-c2ccnc(C(C)(C)O)n2)cc1-n1c(C)cc(OCc2ncc(F)cc2F)c(Cl)c1=O` [ATI-450], the “PDAC burden of pancreata” value in the series with KPPC mice [3] (ATI-450 in chow from 6 weeks of age, two weeks) was “significantly lower PDAC burdens”. Also, the “fractions of normal or early PanIN lesions” value in the series on KPPC mice [3] (ATI-450 in chow, two weeks) is “relatively higher fractions”. The “tumor fibrosis by Sirius Red staining” value in the series with KPPC mice [3] (ATI-450 in chow, two weeks) is reported as “significantly less fibrotic”. Besides, the “progression of PDAC” value with KPPC mice [3] (single agent) is “significantly delayed”. For the same compound, the “SN38-induced p-Beclin1 and LC3-II” value with autophagy markers was “robustly suppress”. Further, in the series with p-Hsp27 [4], the p-Hsp27 entry is given as “replicated”. The apoptosis result in the series with PDAC cells (Beclin-1-ablated cells, added to SN38) is recorded as “only marginally increased apoptosis”; in the series with PDAC lines, “augmented apoptosis”; with MIA paca-2 cells, “replicated”; in [7], “sensitized the cells to apoptosis”. In addition, the PDAC lesions entry with KPPC mice [5] (addition of ATI-450 to FOLFIRINOX) is listed as “almost completely ablated”. Further, the “tumor histology (H&E)” value in the series with KPPC mice [5] (mouse, in vivo) was “smaller but retained a significant fraction of overt PDAC”. For the same compound, the survival entry in the series with KPPC mice [5] (treated from 6 weeks of age until humane endpoints) is “improved survival significantly greater than vehicle”. The “p-Hsp27 (IHC), in vivo on-target effect” value in the series on KPPC mice [5] (tumor sections) is “completely suppressed”. In addition, the “TNFα-induced p-Hsp27” value with PDAC lines was “abrogated”. The tolerability result in [6] is “well-tolerated”.
`Nc1ccn([C@@H]2O[C@H](CO)[C@@H](O)C2(F)F)c(=O)n1` [Gemcitabine]: the “induction of p-MK2 and p-Hsp27” value with p-Hsp27 [8] is “much lower degree”.
Regarding `O=C(Nc1cc(C(F)(F)F)cc(C(F)(F)F)c1)c1cc(Cl)ccc1O` [IMD0354], in the series on TNFα mRNA expression [1] (Pa01c cells), the “SN38-induced induction of TNFα” value is listed as “abrogated”.
On to `Cc1ccc(-c2ccc3c(ccc4sc5c(c43)NC[C@@H](C)NC5=O)n2)cn1` [PF-3644022], for which the “SN38-induced p-Beclin1 and LC3-II” value with autophagy markers is listed as “robustly suppress”. The p-Hsp27 entry in the series on p-Hsp27 [4] is “abolished”. Moreover, in the series on MIA paca-2 cells (MK2 inhibitor alone), the “toxicity to PDAC cells” value is given as “not toxic”. Further, the apoptosis result in the series with MIA paca-2 cells is “significantly increased apoptosis”.
As to `CC(C)(C)C(=O)N1N=CC[C@H]1c1ccccc1` [RIPK inhibitor], the “SN38-induced p-p38, p-MK2, and p-Hsp27” value in series [2] is given as “not blocked”. In addition, in the series on PDAC lines, the “TNFα-induced p-Hsp27” value is given as “did not block p-Hsp27” and the apoptosis entry was “did not block p-Hsp27 or alter apoptosis”.
Regarding `CCc1c2c(nc3ccc(O)cc13)-c1cc3c(c(=O)n1C2)COC(=O)[C@]3(O)CC` [SN38], the LC3-GFP reporter expression result in the series with autophagy markers (PDAC cells) was “significantly decreased”. Besides, the “autophagy markers: p-ULK1 (S555), p-AMPKα (T172), p-Beclin1 (S90), p62” value in the series with autophagy markers (western blots) is on record as “markedly induced”. In addition, in the series on TNFα mRNA expression [1] (Pa01c cells following SN38), the TNFβ expression result is recorded as “elevated”. Also, the “TNFα mRNA expression” value was around 30 fold in the series with TNFα mRNA expression [1] (Pa01c cells, SN38 10 μM for 16 hours) and around 30 fold in the series on TNFα mRNA expression [9]. In addition, in the series with p-Hsp27 [8] (MIA Paca-2 cells, vehicle, 5-FU, SN38 or oxaliplatin individually), the “activation of p-Hsp27” value is “most strongly activates Hsp27”. In addition, the “induction of p-MK2 and p-Hsp27” value in the series on p-Hsp27 [8] is given as “potently induced”. Moreover, the “TNFα protein in supernatant” value in the series with TNFα protein is “increased TNFα protein”.
Consider `CCN(CCO)CCCC(C)Nc1ccnc2cc(Cl)ccc12` (stereo not drawn) [hydroxychloroquine], for which the apoptosis result in the series on PDAC cells (PDAC cells treated with SN38 and HCQ) is “significantly higher levels of apoptosis”.
As to TNFα, in the series with PDAC lines (recombinant TNFα alone), the “apoptosis (PARP cleavage and Annexin V staining)” value is on record as “induced apoptosis”; the p-Hsp27 result is listed as “upregulated”.

The values are drawn from US20230087078A1, “COMPOSITIONS AND METHODS FOR THE TREATMENT OF PANCREATIC CANCER” (Washington University, priority 2020, published 2023).
